According to patent US20090159876A1, “ORGANIC SEMICONDUCTOR MATERIAL AND ORGANIC FIELD EFFECT TRANSISTOR” (MITSUBISHI CHEMICAL CORPORATION, priority 2005, published 2009):
Where two headings read alike, the source gives them in different places.

Tests used:
[1] = Evaluation of crystallinity of film by X-ray diffractometry; assay type: physicochemical; details: for Crystallinity of Film: In-Plane X-ray diffractometry of film
Procedure: X-ray diffractometry was conducted for the oligothiophene film formed of the oligothiophene A (hexamer) prepared in [Evaluation of Ionization Potential] using a RINT-2000/PC available from Rigaku Corporation.

[2] = Evaluation of ionization potential of film by photoelectron spectrometer; assay type: physicochemical; details: film spin-coated from chloroform on quartz substrate (α-6T: film deposited under vacuum); solid state
Procedure: The ionization potential is preferably determined by the method of measuring a sample in a solid state through photoelectron spectroscopy. Examples of the simple devices include a photoelectron spectrometer, model AC-1 (or its successor device) available from Riken Keiki Co., Ltd.
The oligothiophene A (hexamer) (50 mg) prepared in Synthesis 4 was dissolved in chloroform (1 mL) to prepare a solution. This solution was spin-coated on a 2.5 by 2.5 cm^2 quartz substrate available from Furuuchi Chemical Corporation at 1000 rpm. A satisfactory film was produced. The ionization potential (Ip) of this film was determined with a photoelectron spectrometer Model PCR-101 available from Sumitomo Heavy Industries Advanced Machinery. As a reference, an α-6T film deposited on a quartz substrate under vacuum was used (See Comparative Example 1 described below). FIG. 4 is a graph of the ionization potentials observed. The ionization potential (Ip) of the oligothiophene A (hexamer) was 5.34 eV, while that of α-6T was 4.7 eV.

[3] = Evaluation of solubility in specific solvents at 30° C.; assay type: physicochemical
Procedure: The oligothiophene A (hexamer) was dissolved in each of toluene, xylene, ethylbenzene, mesitylene, cyclopentanone, cyclohexanone, methyl chloride, carbon tetrachloride, chlorobenzene, dichlorobenzene, trichlorobenzene, nitrobenzene, methyl ethyl ketone, benzoic acid esters, anisole, phenetole, butyl phenyl ether, methoxytoluene, and benzyl ethyl ether at 30° C., and each solubility was determined. […] In Table 1, the mark o indicates the case where the solubilities of 0.1% by weight and 0.3% by weight for each solvent were observed, and the mark X indicates the other case.

[4] = usual value of representative thiophene materials; cited from earlier work
[5] = 30° C., toluene, xylene, ethylbenzene, mesitylene, cyclopentanone, cyclohexanone and other listed solvents

| SMILES | Crystallinity of Film [1] | Ionization Potential [2] | Solubility in Specific Solvents 0.1% by weight [3] | Solubility in Specific Solvents 0.3% by weight [3] | Crystallinity of film (in words) ([1]; In-Plane X-ray diffractometry of spin-coated film) | Solubility in Specific Solvents 0.1% by weight [3, 5] | Solubility in Specific Solvents 0.3% by weight [3, 5] | ionization potential (Ip) [4] |
| --- | --- | --- | --- | --- | --- | --- | --- | --- |
| CCCCCCc1ccc(-c2cc(-c3ccc(CC)cc3)c(-c3ccc(-c4ccc(-c5ccc(-c6sc(-c7cc(-c8ccc(CC)cc8)c(-c8ccc(-c9ccc(-c%10ccc(-c%11sc(-c%12ccc(CCCCCC)s%12)cc%11-c%11ccc(CC)cc%11)s%10)s9)s8)s7)cc6-c6ccc(CC)cc6)s5)s4)s3)s2)s1 [Example 7] | ◯ | 5.46 eV | ◯ | ◯ | – | – | – | – |
| CCCCCCc1ccc(-c2ccc(-c3ccc(-c4ccc(-c5sc(-c6cc(-c7ccc(CC)cc7)c(-c7ccc(-c8ccc(-c9ccc(-c%10ccc(CCCCCC)s%10)s9)s8)s7)s6)cc5-c5ccc(CC)cc5)s4)s3)s2)s1 [Example 3] | ◯ | 5.26 eV | ◯ | ◯ | – | – | – | – |
| CCCCCCc1ccc(-c2ccc(-c3ccc(-c4ccc(-c5ccc(-c6sc(-c7cc(-c8ccc(CC)cc8)c(-c8ccc(-c9ccc(-c%10ccc(-c%11ccc(-c%12ccc(CCCCCC)s%12)s%11)s%10)s9)s8)s7)cc6-c6ccc(CC)cc6)s5)s4)s3)s2)s1 [Example 6] | ◯ | 5.18 eV | – | – | – | ◯ | ◯ | – |

Second part, led by results:

| Crystallinity of Film [1] | Ionization Potential [2] | Solubility in Specific Solvents 0.1% by weight [3] | Solubility in Specific Solvents 0.3% by weight [3] | Crystallinity of film (in words) ([1]; In-Plane X-ray diffractometry of spin-coated film) | Solubility in Specific Solvents 0.1% by weight [3, 5] | Solubility in Specific Solvents 0.3% by weight [3, 5] | SMILES | ionization potential (Ip) [4] |
| --- | --- | --- | --- | --- | --- | --- | --- | --- |
| ◯ | 5.34 eV | – | – | crystalline semiconductor layer | ◯ | ◯ | CCCCCCc1ccc(-c2ccc(-c3sc(-c4cc(-c5ccc(CC)cc5)c(-c5ccc(-c6ccc(CCCCCC)s6)s5)s4)cc3-c3ccc(CC)cc3)s2)s1 [Example 1] | – |
| ◯ | 4.7 eV | ◯ | ◯ | – | – | – | c1csc(-c2ccc(-c3ccc(-c4ccc(-c5ccc(-c6cccs6)s5)s4)s3)s2)c1 [α-6T, α-sezithiophene, reference compound] | about 4.7 eV |
| ◯ | 5.24 eV | ◯ | ◯ | – | – | – | CCCCCCc1ccc(-c2ccc(-c3ccc(-c4ccc(-c5sc(-c6ccc(CCCCCC)s6)cc5-c5ccc(CC)cc5)s4)s3)s2)s1 [Example 5] | – |
| ◯ | 5.24 eV | ◯ | ◯ | – | – | – | CCCCCCc1ccc(-c2ccc(-c3ccc(-c4sc(-c5cc(-c6ccc(CC)cc6)c(-c6ccc(-c7ccc(-c8ccc(CCCCCC)s8)s7)s6)s5)cc4-c4ccc(CC)cc4)s3)s2)s1 [Example 2] | – |
